Experimental data from patent EP0845034B1, “PEPTIDE HAVING PRONOCICEPTIVE PROPERTIES” (Euroscreen S.A., priority 1995, dated 1997).
Structures can show the parent of a compound that is named as a salt.

Columns and labels:
mice [1] = experiment: antagonism of nociceptin-induced stimulation of horizontal locomotor activity; type: in vivo
mice [2] = conditions: mouse, in vivo

C=CCN1CC[C@]23c4c5ccc(O)c4O[C@H]2C(=O)CC[C@@]3(O)[C@H]1C5 [Naloxone, Naloxone hydrochloride]
effect on motor-stimulant effect of nociceptin (mice [1]; 0.0-4.5 mg/kg s.c., 10 minutes before i.c.v. 100 ng nociceptin, first 10 minutes of testing): did not suppress

O=C(CCCN1CCC(O)(c2ccc(Cl)cc2)CC1)c1ccc(F)cc1 [haloperidol]
effect on nociceptin-induced stimulation of locomotor activity (mice [1]; increasing doses of D2 dopamine receptor antagonist pretreatment): antagonized

CN1CC[C@]23c4c5ccc(O)c4O[C@H]2[C@@H](O)C=C[C@H]3[C@H]1C5 [morphin]
number of explored holes (mice [2]): 24 ± 2
